The subject of the test is influenza virus A/Puerto Rico/8/34 (H1N1), GS-R virus. Put plainly: microbe, parasite or virus in culture. In kind it is cell-based.

With `CC(=O)NC12CC(C)(C)C3CCC1(C)CCCC32C` [Compound 1a, (1S,3aR,4R,7aS)-N-(2,2,4,7a-tetramethyloctahydro-1,4-etanoinden-3a-yl)-acetamide], the “Fold increase of IC50 versus virus passaged without GS” value is listed as “almost five-fold higher”. In addition, the IC50 (unidentified influenza virus, H1N1, MDCK, read-out: IC50 to GS) amounted to 106 µM.

What is called IC50 is the concentration needed to halve the response being measured.

(Values after paper PMC8619001, “Discovery of New Ginsenol-Like Compounds with High Antiviral Activity” (Molecules, 2021).)
